Assay results from US11286234B2, “Phenyl urea derivatives as N-formyl peptide receptor modulators” (Allergan, Inc., priority 2016, dated 2022).

How the values were obtained:
FPR1 = molecular target: T1, FPR1 (Homo sapiens, UniProt P21462); test: Compound-induced calcium activity (FLIPR Tetra) in CHO-Gα16 cells stably expressing FPR1; type: cell-based; settings: for EC50 / Emax: CHO-Gα16 cells stably expressing FPR1; for EC50: calcium activity, tested 0.61 to 10,000 nM, read-out: FPR1 Ga16-CHO EC50; for Emax: efficacy value in brackets, read-out: FPR1 Ga16-CHO (% eff); for Ratio FPR2:FPR1 (EC50): ratio of the EC50 for agonizing FPR2 to the EC50 for agonizing FPR1
T1 construct: expressed in transfected cells
T1 sequence (P21462 1-350): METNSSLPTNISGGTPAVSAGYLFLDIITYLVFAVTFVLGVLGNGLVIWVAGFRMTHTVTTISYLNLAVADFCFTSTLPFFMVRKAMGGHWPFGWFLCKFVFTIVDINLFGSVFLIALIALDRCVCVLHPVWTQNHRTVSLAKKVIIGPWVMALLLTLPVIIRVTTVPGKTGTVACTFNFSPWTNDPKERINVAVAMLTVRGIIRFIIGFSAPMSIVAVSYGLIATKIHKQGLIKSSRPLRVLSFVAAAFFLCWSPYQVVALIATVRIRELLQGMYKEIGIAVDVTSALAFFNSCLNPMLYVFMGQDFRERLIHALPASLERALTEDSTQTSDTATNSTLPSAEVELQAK
Experimental: (§1) CHO-Gα16 cells stably expressing FPR1 or FPR2 were cultured in: Ham's F12 nutrient media, 10% fetal bovine serum, 1% PSA (penicillin, streptomycin, amphotericin B antiobiotic/antimycotic), 400 μg/ml geneticin and 50 μg/ml hygromycin. In general, the day before the experiment, 18,000 cells/well were plated in a 384-well clear bottom poly-D-lysine coated plate. The following day the screening compound-induced calcium activity was assayed on the FLIPR^Tetra. The drug plates were prepared in 384-well microplates using the EP3 and the MultiPROBE robotic liquid handling systems. Compounds were tested at concentrations ranging from 0.61 to 10,000 nM. Results are expressed as EC50 (nM) and efficacy values.

FPR2 = molecular target: T2, FPR2 (Homo sapiens, UniProt P25090); test: Compound-induced calcium activity (FLIPR Tetra) in CHO-Gα16 cells stably expressing FPR2; type: cell-based; settings: for EC50: calcium activity, tested 0.61 to 10,000 nM, read-out: FPR2 Ga16-CHO EC50; for Emax: efficacy value in brackets, read-out: FPR2 Ga16-CHO (% eff)
T2 construct: expressed in transfected cells
T2 sequence (P25090 1-351): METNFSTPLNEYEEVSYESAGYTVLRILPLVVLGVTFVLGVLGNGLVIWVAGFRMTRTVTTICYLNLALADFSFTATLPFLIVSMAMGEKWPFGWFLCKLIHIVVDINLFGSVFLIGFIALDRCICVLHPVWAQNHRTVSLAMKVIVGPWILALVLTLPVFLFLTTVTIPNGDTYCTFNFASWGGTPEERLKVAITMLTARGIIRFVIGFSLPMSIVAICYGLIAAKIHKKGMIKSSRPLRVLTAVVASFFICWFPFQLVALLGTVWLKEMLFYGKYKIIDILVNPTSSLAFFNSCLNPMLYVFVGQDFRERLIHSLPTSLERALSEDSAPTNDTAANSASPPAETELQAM
Experimental: as §1

For `O=C(Nc1ccc(Br)cc1)N[C@@H]1CCCC[C@H]1C(=O)O` (relative stereo) [Compound 18, (1R*,2R*)-2-(3-(4-Bromophenyl)ureido)cyclohexanecarboxylic acid], the EC50 (FPR1) was 0.047 µM, the Emax (FPR1) was 101% and the “Ratio FPR2:FPR1 (EC50)” value (FPR1) was 5.2. The EC50 (FPR2) was 0.246 µM and the Emax (FPR2) was 98%.
With `O=C(Nc1ccc(Br)cc1)N[C@H]1CCCC[C@H]1C(=O)O` (relative stereo) [Compound 19, (1R*,2S*)-2-(3-(4-Bromophenyl)ureido)cyclohexanecarboxylic acid] the EC50 (FPR1) was 0.014 µM, the Emax (FPR1) was 97% and the “Ratio FPR2:FPR1 (EC50)” value (FPR1) was 3.4. For the same molecule, the EC50 (FPR2) was 0.048 µM and the Emax (FPR2) was 102%.
In the case of `COC(=O)C(CNC(=O)Nc1ccc(Br)cc1)CC(C)C` (stereo not drawn) [Compound 1, Methyl 2-[({[(4-bromophenyl)amino]carbonyl}amino)methyl]-4-methylpentanoate], the EC50 (FPR1) is reported as 4.03 µM, the Emax (FPR1) is reported as 72% and the “Ratio FPR2:FPR1 (EC50)” value (FPR1) is reported as 0.17. For the same molecule, the EC50 (FPR2) was 0.678 µM and the Emax (FPR2) was 47%.
For `COC(=O)C(CNC(=O)Nc1ccc(C(F)(F)F)cc1)CC(C)C` (stereo not drawn) [Compound 2, Methyl 4-methyl-2-{[({[4-(trifluoromethyl)phenyl]amino}carbonyl)amino]methyl}pentanoate], the EC50 (FPR1) was 10.4 µM, the Emax (FPR1) was 57% and the “Ratio FPR2:FPR1 (EC50)” value (FPR1) was 0.21. It also gave an EC50 (FPR2) of 2.2 µM and an Emax (FPR2) of 78%.
For `COC(=O)C(CNC(=O)Nc1ccc(Cl)cc1)CC(C)C` (stereo not drawn) [Compound 3, Methyl 2-[({[(4-chlorophenyl)amino]carbonyl}amino)methyl]-4-methylpentanoate], the EC50 (FPR1) was > 10 µM, the Emax (FPR1) was 50% and the “Ratio FPR2:FPR1 (EC50)” value (FPR1) was <1. It also gave an EC50 (FPR2) of 1.32 µM and an Emax (FPR2) of 95%.
For `COC(=O)C(CNC(=O)Nc1ccc(Br)cc1F)CC(C)C` (stereo not drawn) [Compound 4, Methyl 2[({[(4-bromo-2-fluorophenyl)amino]carbonyl}amino)methyl]-4-methylpentanoate], the EC50 (FPR1) was > 19 µM, the Emax (FPR1) was 21% and the “Ratio FPR2:FPR1 (EC50)” value (FPR1) was <1. For the same molecule, the EC50 (FPR2) was 1.53 µM and the Emax (FPR2) was 98%.
In the case of `COC(=O)C(CNC(=O)Nc1ccc(OC)cc1)CC(C)C` (stereo not drawn) [Compound 5, Methyl 2-[({[(4-methoxyphenyl)amino]carbonyl}amino)methyl]-4-methylpentanoate], the EC50 (FPR1) is reported as > 73 µM, the Emax (FPR1) is reported as 65% and the “Ratio FPR2:FPR1 (EC50)” value (FPR1) is reported as <1. It also gave an EC50 (FPR2) of 0.541 µM and an Emax (FPR2) of 42%.
`COC(=O)C(CNC(=O)Nc1ccc(OC(F)(F)F)cc1)CC(C)C` (stereo not drawn) [Compound 6, Methyl 4-methyl-2-{[({[4-(trifluoromethoxy)phenyl]amino}carbonyl)amino]methyl}pentanoate] was tested, and the EC50 (FPR1) was > 15 µM, the Emax (FPR1) was 39% and the EC50 (FPR2) was > 1 µM. It also gave an Emax (FPR2) of 67%.
With `CC(C)CC(CNC(=O)Nc1ccc(Br)cc1)C(=O)O` (stereo not drawn) [Compound 7, 2-[({[(4-Bromophenyl)amino]carbonyl}amino)methyl]-4-methylpentanoic acid] the EC50 (FPR1) was 0.035 µM, the Emax (FPR1) was 97% and the “Ratio FPR2:FPR1 (EC50)” value (FPR1) was 37. It also gave an EC50 (FPR2) of 1.3 µM and an Emax (FPR2) of 90%.
For `CC(C)CC(CNC(=O)Nc1ccc(C(F)(F)F)cc1)C(=O)O` (stereo not drawn) [Compound 8, 4-Methyl-2-{[({[4-(trifluoromethyl)phenyl}amino}carbonyl)amino]methyl}pentanoic acid], the EC50 (FPR1) was 0.054 µM, the Emax (FPR1) was 105% and the “Ratio FPR2:FPR1 (EC50)” value (FPR1) was 25. For the same molecule, the EC50 (FPR2) was 1.35 µM and the Emax (FPR2) was 92%.
With `CC(C)CC(CNC(=O)Nc1ccc(Cl)cc1)C(=O)O` (stereo not drawn) [Compound 9, 2-[({[(4-Chlorophenyl)amino]carbonyl}amino)methyl]-4-methylpentanoic acid] the EC50 (FPR1) was 0.163 µM, the Emax (FPR1) was 95% and the “Ratio FPR2:FPR1 (EC50)” value (FPR1) was 18. For the same molecule, the EC50 (FPR2) was 3 µM.
For `CC(C)CC(CNC(=O)Nc1ccc(Br)cc1F)C(=O)O` (stereo not drawn) [Compound 10, 2[({[(4-Bromo-2-fluorophenyl)amino]carbonyl}amino)methyl]-4-methylpentanoic acid], the EC50 (FPR1) was 0.113 µM, the Emax (FPR1) was 98% and the “Ratio FPR2:FPR1 (EC50)” value (FPR1) was 17. The EC50 (FPR2) was 1.91 µM and the Emax (FPR2) was 94%.
In the case of `COc1ccc(NC(=O)NCC(CC(C)C)C(=O)O)cc1` (stereo not drawn) [Compound 11, 2-[({[(4-methoxyphenyl)amino]carbonyl}amino)methyl]-4-methylpentanoic acid], the EC50 (FPR1) is reported as 1.22 µM, the Emax (FPR1) is reported as 92% and the EC50 (FPR2) is reported as > 1 µM. For the same molecule, the Emax (FPR2) was 56%.
With `CC(C)CC(CNC(=O)Nc1ccc(OC(F)(F)F)cc1)C(=O)O` (stereo not drawn) [Compound 12, 4-Methyl-2-{[({[4-(trifluoromethoxy)phenyl]amino}carbonyl)amino]methyl}pentanoic acid] the EC50 (FPR1) was 1.18 µM, the Emax (FPR1) was 81% and the “Ratio FPR2:FPR1 (EC50)” value (FPR1) was 6.9. The EC50 (FPR2) was 8.09 µM and the Emax (FPR2) was 40%.
With `CC(C)C(CNC(=O)Nc1ccc(Br)cc1)C(=O)O` (stereo not drawn) [Compound 13, 2-((3-(4-Bromophenyl)ureido)methyl)-3-methylbutanoic acid] the EC50 (FPR1) was 2.19 µM, the Emax (FPR1) was 97% and the “Ratio FPR2:FPR1 (EC50)” value (FPR1) was 1.2. For the same molecule, the EC50 (FPR2) was 2.67 µM and the Emax (FPR2) was 83%.
`CCCC(CNC(=O)Nc1ccc(Br)cc1)C(=O)O` (stereo not drawn) [Compound 14, 2-((3-(4-Bromophenyl)ureido)methyl)pentanoic acid] was tested, and the EC50 (FPR1) was 0.243 µM, the Emax (FPR1) was 99% and the “Ratio FPR2:FPR1 (EC50)” value (FPR1) was 5.4. For the same molecule, the EC50 (FPR2) was 1.32 µM and the Emax (FPR2) was 83%.
`O=C(NCC(Cc1ccccc1)C(=O)O)Nc1ccc(Br)cc1` (stereo not drawn) [Compound 15, 2-Benzyl-3-(3-(4-bromophenyl)ureido)propanoic acid] was tested, and the EC50 (FPR1) was 0.067 µM, the Emax (FPR1) was 94% and the “Ratio FPR2:FPR1 (EC50)” value (FPR1) was 5.2. The EC50 (FPR2) was 0.351 µM and the Emax (FPR2) was 93%.
`CC(CNC(=O)Nc1ccc(Br)cc1)C(=O)O` (stereo not drawn) [Compound 16, 3-(3-(4-Bromophenyl)ureido)-2-methylpropanoic acid] was tested, and the EC50 (FPR1) was 2.85 µM, the Emax (FPR1) was 84% and the “Ratio FPR2:FPR1 (EC50)” value (FPR1) was 1.1. It also gave an EC50 (FPR2) of 3.07 µM and an Emax (FPR2) of 62%.
`CCC(CNC(=O)Nc1ccc(Br)cc1)C(=O)O` (stereo not drawn) [Compound 17, 2-((3-(4-Bromophenyl)ureido)methyl)butanoic acid] was tested, and the EC50 (FPR1) was 2.15 µM, the Emax (FPR1) was 85% and the “Ratio FPR2:FPR1 (EC50)” value (FPR1) was 1.1. The EC50 (FPR2) was 2.27 µM and the Emax (FPR2) was 71%.
With `O=C(Nc1ccc(Br)cc1)NC1CCCCCCC1C(=O)O` (stereo not drawn) [Compound 20, 2-(3-(4-Bromophenyl)ureido)cyclooctanecarboxylic acid] the EC50 (FPR1) was 0.051 µM, the “Ratio FPR2:FPR1 (EC50)” value (FPR1) was 1.6 and the EC50 (FPR2) was 0.082 µM. For the same molecule, the Emax (FPR2) was 97%.
In the case of `CC(C)CC(CCNC(=O)Nc1ccc(Br)cc1)S(=O)(=O)O` (stereo not drawn) [Compound 21, 1-(3-(4-Bromophenyl)ureido)-5-methylhexane-3-sulfonic acid], the EC50 (FPR1) is reported as 0.007 µM, the Emax (FPR1) is reported as 99% and the “Ratio FPR2:FPR1 (EC50)” value (FPR1) is reported as 179. It also gave an EC50 (FPR2) of 1.26 µM and an Emax (FPR2) of 89%.
In the case of `CC(C)CC(CNC(=O)Nc1ccc(Br)cc1)C(=O)NCC(=O)OC(C)(C)C` (stereo not drawn) [Compound 31, t-Butyl ({2-[({[(4 bromophenyl)amino]carbonyl}amino)methyl]-4-methylpentanoyl}amino)acetate], the EC50 (FPR1) is reported as 0.552 µM, the Emax (FPR1) is reported as 98% and the “Ratio FPR2:FPR1 (EC50)” value (FPR1) is reported as 2.7. The EC50 (FPR2) was 1.5 µM and the Emax (FPR2) was 18%.
For `CC(C)CC(CNC(=O)Nc1ccc(Br)cc1)C(=O)N(C)CC(=O)OC(C)(C)C` (stereo not drawn) [Compound 32, tert-Butyl 2-(2-((3-(4-bromophenyl)ureido)methyl)-N,4-dimethylpentanamido)acetate], the EC50 (FPR1) was 2.51 µM, the Emax (FPR1) was 73% and the “Ratio FPR2:FPR1 (EC50)” value (FPR1) was 0.41. It also gave an EC50 (FPR2) of 1.03 µM and an Emax (FPR2) of 89%.
In the case of `CC(C)CC(CNC(=O)Nc1ccc(Br)cc1)C(=O)NCc1nnn[nH]1` (stereo not drawn) [Compound 33, N-((1H-tetrazol-5-yl)methyl)-2-((3-(4-bromophenyl)ureido)methyl)-4-methylpentanamide], the EC50 (FPR1) is reported as 0.013 µM, the Emax (FPR1) is reported as 95% and the “Ratio FPR2:FPR1 (EC50)” value (FPR1) is reported as 10. It also gave an EC50 (FPR2) of 0.13 µM and an Emax (FPR2) of 98%.
For `CC(C)CC(CNC(=O)Nc1ccc(Br)cc1)C(=O)N(C)C` (stereo not drawn) [Compound 34, 2-((3-(4-bromophenyl)ureido)methyl)-N,N,4-trimethylpentanamide], the EC50 (FPR1) was 6.32 µM, the Emax (FPR1) was 69% and the “Ratio FPR2:FPR1 (EC50)” value (FPR1) was <1. The EC50 (FPR2) was 0.314 µM and the Emax (FPR2) was 92%.
For `CC(C)CC(CNC(=O)Nc1ccc(Br)cc1)C(N)=O` (stereo not drawn) [Compound 35, 2-((3-(4-bromophenyl)ureido)methyl)-4-methylpentanamide], the EC50 (FPR1) was 7.09 µM, the Emax (FPR1) was 80% and the “Ratio FPR2:FPR1 (EC50)” value (FPR1) was 0.14. It also gave an EC50 (FPR2) of 0.975 µM and an Emax (FPR2) of 95%.
